Experimental data taken from patent publication US20230220339A1, “T CELL, PREPARATION METHOD FOR SAME, AND APPLICATIONS THEREOF” (BENETHERA (BEIJING) BIOTECHNOLOGY CO., LTD., priority 2020, published 2023).

What was measured:
Format in all cases: cell-based, mouse
m-calpain = assay: Calpain activity by digestion of the calpain substrate CMAC (flow cytometry); conditions: for calpain activity (digestion rate of CMAC) after Ryr activation: 4-CMC treatment, FIG. 7
Experimental: Wherein calpain activity measurement procedure: To measure calpain activity, 10^5 T cells were incubated in 200 µL of medium containing 20 µM calpain substrate CMAC (t-BOC-Leu-Met, Thermo Fisher) in the dark at room temperature. After 5 min of incubation, the reaction was terminated with 1 % PFA (Biosharp) and the cells were immediately placed on ice. The fluorescent signal emitted from the digested substrate was measured as calpain activity by Fortessa flow cytometer through the Hoechst blue channel. In all experiments, the inhibitor JTV519 was added 30 min prior to the experiments, and activator 4-CmC and CMAC were added at the same time.

3T3 and A20 cells = assay: 4-CmC-induced Ca^2+ signal in cells with or without FoxP3 overexpression; conditions: FoxP3-transfected 3T3 and A20 cells vs non-FoxP3 overexpression group, HBSS without calcium ions, FIG. 24
Experimental: For non-adherent cells, Treg, Tconv and A20 cells were stained with […] fluo-4 AM (Thermo Fisher) for 1 h at 37° C. After washing, the cells were adhered to poly-L-lysine coated (0.1 mg/mL; Sigma-Aldrich) round glass slides mounted in the sandwich home-made chamber at room temperature. After 15 min, excess non-adherent cells were removed by washing with buffer. For adherent cells, NIH-3T3 and Renca cells grown on glass slides were stained with […] fluo-4 AM (Thermo Fisher) for 1 hour at 37° C. The measurement chamber was then placed on an Olympus IX-73 microscope equipped with a 20-fold (numerical aperture: 0.8) or 40-fold (numerical aperture: 1.2) Olympus objective. Unless otherwise stated, Ca^2+ oscillation within 20 min was recorded at intervals of 6 s. […] For the stimulation experiments, Ca^2+ oscillation within 5 min was recorded at intervals of 1 s. […] The emission signal at 468 nm to 550 nm excited by the 488 nm laser was recorded with a charge coupled device camera (ORCA-AG, Hamamatsu). […] The mean fluorescence intensity changes over time in individual cells were analyzed using ImageJ and normalized with fluorescence intensity in the first frame (Fluo-4 F / F0). The peak of Ca^2+ oscillation of the individual cells was shown, and the standard deviation of Ca^2+ fluctuation intensity was calculated as Mean ± SEM. […]

DC2.4 cells = assay: AFM single cell force spectrum, T-DC adhesion (two-cell system); conditions: Ryr2 blocked in Tconv; intensities even stronger than that of Treg, FIG. 14
Experimental: The atomic force microscope-based single cell force spectrum procedures were performed using JPK CellHesion device as described above (see “Alum interaction with dendritic cell membrane lipids is essential for its adjuvanticity” (Flach et al., Nat Med 17, 479-487, 2011) and “Strong adhesion by regulatory T cells induces dendritic cell cytoskeletal polarization and contact-dependent lethargy” (Chen et al., The Journal of experimental medicine, 2017)). Briefly, to measure T-DC adhesion in a two-cell system, DC2.4 cells were cultured on untreated glass plates. T cells were treated with 200 U/mL human IL-2 overnight. The glass plates were moved into an AFM compatible chamber and mounted on a machine table. Clean cantilevers were coated with CellTak (BD), and then stick an individual T cell on thefront end of the cantilever. The AFM cantilever carrying the individual T cell was lowered to allow T cell contact with a single DC and to interact for 15 s, and then moved upward until the two cells were completely separated. A force spectrum curve was obtained. The process was then repeated. […] Treg/Tconv contact-mediated inhibition of OT-II-DC adhesion was analyzed. […] For each SCFS experiment, a T-DC pair was used to generate force readings for each up-down cycle during a period of several minutes. […]

| Structure (SMILES) | calpain activity (digestion rate of CMAC) after Ryr activation (m-calpain; Tconv cells) | calpain activity (digestion rate of CMAC) after Ryr activation (m-calpain; Treg cells) | Ca^2+ signal driven by 4-CmC (3T3 and A20 cells) | digestion of m-calpain substrate after JTV519 treatment (m-calpain; Tconv, inhibitor added 30 min prior, FIG. 13) | contact of treated Tconv with dendritic cells (adhesion) (DC2.4 cells) |
| --- | --- | --- | --- | --- | --- |
| Cc1cc(O)ccc1Cl [4-CmC] | completely able to induce calpain activity | not sensitive | drives much less Ca^2+ signal | – | – |
| COc1ccc2c(c1)CN(C(=O)CCN1CCC(Cc3ccccc3)CC1)CCS2 [JTV519] | – | – | – | digestion of low m-calpain substrate | induced strong contact with dendritic cells |
